The subject of the data set is CCRIS mutagenicity, Ames/micronucleus/aberration tests. The data set is described as follows: CCRIS mutagenicity studies.
The mark [1] stands for this setting: Test System: AMES SALMONELLA TYPHIMURIUM, Strain/Indicator: TA98, Metabolic Activation: NONE, Method: STANDARD PLATE.
Setting [2] is: Test System: AMES SALMONELLA TYPHIMURIUM, Strain/Indicator: TA98, Metabolic Activation: RAT, LIVER, S-9, AROCLOR 1254, Method: STANDARD PLATE.
Where [3] appears, read: Test System: AMES SALMONELLA TYPHIMURIUM, Strain/Indicator: TA100, Metabolic Activation: RAT, LIVER, S-9, AROCLOR 1254, Method: STANDARD PLATE.
Where [4] appears, read: Test System: AMES SALMONELLA TYPHIMURIUM, Strain/Indicator: TA102, Metabolic Activation: NONE, Method: STANDARD PLATE.
[5] abbreviates: Test System: AMES SALMONELLA TYPHIMURIUM, Strain/Indicator: TA102, Metabolic Activation: RAT, LIVER, S-9, AROCLOR 1254, Method: STANDARD PLATE.
Setting [6] is: Test System: AMES SALMONELLA TYPHIMURIUM, Strain/Indicator: TA98, Metabolic Activation: NONE, Method: PREINCUBATION
Where [7] appears, read: Test System: AMES SALMONELLA TYPHIMURIUM, Strain/Indicator: TA100, Metabolic Activation: NONE, Method: PREINCUBATION
Where [8] appears, read: Test System: AMES SALMONELLA TYPHIMURIUM, Strain/Indicator: TA1535, Metabolic Activation: NONE, Method: PREINCUBATION
Where [9] appears, read: Test System: AMES SALMONELLA TYPHIMURIUM, Strain/Indicator: TA1535, Metabolic Activation: NONE, Method: STANDARD PLATE.

Activity calls are given as the source filed them. How the calls were made is not given here.

This is an account of results in PubChem BioAssay AID1259407 (Chemical Carcinogenesis Research Information System (CCRIS), 2018).

As to `ClCc1cccnc1`, the mutagenic call is “inactive; negative” under setting [1]; “inactive; negative” under setting [2]; “active; positive” under setting [3]; “inactive; negative” under setting [4]; “inactive; negative” under setting [5]; “inactive; negative” (Test System: E. COLI, Strain/Indicator: WP2 UVRA, Metabolic Activation: MOUSE, LIVER, S-9, AROCLOR 1254, Method: STANDARD PLATE). For the same compound, the mutagenic call (Test System: E. COLI, Strain/Indicator: WP2 UVRA, Metabolic Activation: NONE, Method: STANDARD PLATE) was “inactive; negative”; the mutagenic call (Test System: E. COLI, Strain/Indicator: WP2 UVRA, Metabolic Activation: RAT, LIVER, S-9, AROCLOR 1254, Method: STANDARD PLATE) is “inactive; negative”; the mutagenic call (Test System: E. COLI, Strain/Indicator: WP2 UVRA, Metabolic Activation: RAT, LIVER, S-9, Method: STANDARD PLATE) was “inactive; negative”; the mutagenic call (Test System: MOUSE LYMPHOMA, Strain/Indicator: L5178Y (TK+/TK-), Metabolic Activation: NONE, Method: SUSPENSION/PLATE) was “active; positive”; the mutagenic call (Test System: MOUSE LYMPHOMA, Strain/Indicator: L5178Y (TK+/TK-), Metabolic Activation: RAT, LIVER, S-9, AROCLOR 1254, Method: SUSPENSION/PLATE) is “active; positive”.

As to `N#CCCO`, the mutagenic call reads like this: (Test System: AMES SALMONELLA TYPHIMURIUM, Strain/Indicator: TA97, Metabolic Activation: HAMSTER, LIVER, S-9, AROCLOR 1254 (10 OR 30%), Method: PREINCUBATION) “inactive; negative”; (Test System: AMES SALMONELLA TYPHIMURIUM, Strain/Indicator: TA97, Metabolic Activation: NONE, Method: PREINCUBATION) “inactive; negative”; (Test System: AMES SALMONELLA TYPHIMURIUM, Strain/Indicator: TA97, Metabolic Activation: RAT, LIVER, S-9, AROCLOR 1254 (10 OR 30%), Method: PREINCUBATION) “inactive; negative”; (Test System: AMES SALMONELLA TYPHIMURIUM, Strain/Indicator: TA98, Metabolic Activation: HAMSTER, LIVER, S-9, AROCLOR 1254 (10 OR 30%), Method: PREINCUBATION) “inactive; negative”; under setting [6], “inactive; negative”; (Test System: AMES SALMONELLA TYPHIMURIUM, Strain/Indicator: TA98, Metabolic Activation: RAT, LIVER, S-9, AROCLOR 1254 (10 OR 30%), Method: PREINCUBATION) “inactive; negative”. For the same compound, the mutagenic call is, setting by setting: (Test System: AMES SALMONELLA TYPHIMURIUM, Strain/Indicator: TA100, Metabolic Activation: HAMSTER, LIVER, S-9, AROCLOR 1254 (10 OR 30%), Method: PREINCUBATION) “inactive; negative”; under setting [7], “inactive; negative”; (Test System: AMES SALMONELLA TYPHIMURIUM, Strain/Indicator: TA100, Metabolic Activation: RAT, LIVER, S-9, AROCLOR 1254 (10 OR 30%), Method: PREINCUBATION) “inactive; negative”; (Test System: AMES SALMONELLA TYPHIMURIUM, Strain/Indicator: TA1535, Metabolic Activation: HAMSTER, LIVER, S-9, AROCLOR 1254 (10 OR 30%), Method: PREINCUBATION) “inactive; negative”; under setting [8], “inactive; negative”; (Test System: AMES SALMONELLA TYPHIMURIUM, Strain/Indicator: TA1535, Metabolic Activation: RAT, LIVER, S-9, AROCLOR 1254 (10 OR 30%), Method: PREINCUBATION) “inactive; negative”.

For `[N-]=[N+]=NCCO`, the mutagenic call under setting [9] is “active; positive”.

`CN(Cc1ccc(Br)cc1)N=O`: the mutagenic call by setting is: (Test System: AMES SALMONELLA TYPHIMURIUM, Strain/Indicator: TA1535, Metabolic Activation: HAMSTER, LIVER, S-9, AROCLOR 1254, Method: STANDARD PLATE) “active; positive”; under setting [9], “inactive; negative”.

As to `Cc1cccc2c1C(C)c1ccccc1-2` (stereo not given), the mutagenic call is, setting by setting: under setting [2], “active; positive”; under setting [3], “active; positive”.

`Cc1ccc2c3c1ccc1cccc(c13)C2`: the mutagenic call under setting [3] was “active; positive”.

On to `ClCc1ccccn1`, for which the mutagenic call is, setting by setting: (Test System: AMES SALMONELLA TYPHIMURIUM, Strain/Indicator: TA97, Metabolic Activation: NONE, Method: STANDARD PLATE) “inactive; negative”; (Test System: AMES SALMONELLA TYPHIMURIUM, Strain/Indicator: TA97, Metabolic Activation: RAT, LIVER, S-9, AROCLOR 1254, Method: STANDARD PLATE) “inactive; negative”; under setting [1], “inactive; negative”; under setting [2], “inactive; negative”; (Test System: AMES SALMONELLA TYPHIMURIUM, Strain/Indicator: TA100, Metabolic Activation: NONE, Method: STANDARD PLATE) “active; positive”; under setting [3], “active; positive”. Moreover, the mutagenic call was “inactive; negative” under setting [4]; “inactive; negative” under setting [5]; “active; positive” (Test System: CHINESE HAMSTER OVARY, Strain/Indicator: CHO-K1-BH4 (HGPRT)/6-THIOGUANINE, Metabolic Activation: NONE); “inactive; negative” (Test System: CHINESE HAMSTER OVARY, Strain/Indicator: CHO-K1-BH4 (HGPRT)/6-THIOGUANINE, Metabolic Activation: S-9).

Turning to `COC(=O)C1=C(C)NC(C)=C(C(=O)OCC(C)=O)C1c1ccccc1[N+](=O)[O-]` (stereo not given), the mutagenic call under setting [6] was “inactive; negative”; the mutagenic call (Test System: AMES SALMONELLA TYPHIMURIUM, Strain/Indicator: TA98, Metabolic Activation: S-9, Method: PREINCUBATION) was “inactive; negative”; the mutagenic call under setting [7] is “inactive; negative”; the mutagenic call (Test System: AMES SALMONELLA TYPHIMURIUM, Strain/Indicator: TA100, Metabolic Activation: S-9, Method: PREINCUBATION) was “inactive; negative”; the mutagenic call under setting [8] is “inactive; negative”; the mutagenic call (Test System: AMES SALMONELLA TYPHIMURIUM, Strain/Indicator: TA1535, Metabolic Activation: S-9, Method: PREINCUBATION) is “inactive; negative”. Also, the mutagenic call is “inactive; negative” (Test System: AMES SALMONELLA TYPHIMURIUM, Strain/Indicator: TA1537, Metabolic Activation: NONE, Method: PREINCUBATION); “inactive; negative” (Test System: AMES SALMONELLA TYPHIMURIUM, Strain/Indicator: TA1537, Metabolic Activation: S-9, Method: PREINCUBATION); “inactive; negative” (Test System: E.COLI, Strain/Indicator: WP2 UVRA, Metabolic Activation: NONE, Method: PREINCUBATION); “inactive; negative” (Test System: E.COLI, Strain/Indicator: WP2 UVRA, Metabolic Activation: S-9, Method: PREINCUBATION).

With `Cc1ccc2ccc([N+](=O)[O-])cc2c1`, the mutagenic call under setting [6] was “active; positive”.
